Measurements published in EP0373623A2, “Pharmaceutical compositions useful in potentiating natural killer cell activity” (MERRELL DOW PHARMACEUTICALS INC., priority 1988, dated 1990).

Test system: Hepatic metastases
Assay: Induced hepatic metastases after intrasplenic tumor cell injection
Type: in vivo, C57BL/6 mice
Conditions: DAP 100 mg/kg; for Metastic foci: mean ± S.E., n=8; for % Reduction: reduction in metastic foci from PBS control group
Protocol: Hepatic metastases were induced as follows. C57BL/6 mice were anesthetized by […] of pentobarbital. The mice were prepped with 70% ethanol, dried with a sterile gauze, and then, with the use of sterile scissors, a small left subcostal incision was made. The spleen was exposed, and its short gastric vessels along with the gastrosplenic ligament were cut, allowing the spleen to be brought onto the animal's abdominal wall attached to its splenic pedicle. […] of a single cell suspension containing 3 x 10⁵ tumor cells in HBSS was injected into the upper pole of the exposed extraabdominal spleen. After the injection was completed, the needle was removed, and a period of 1 minute was allowed to elapse to permit tumor cells to be flushed into the portal circulation. The splenic pedicle was clipped, the spleen was removed, and splenic pedicle was dropped i.p. The abdominal wall musculature and skin were closed in one layer. The animals were randomly allocated to their respective treatment groups and were allowed to recover. By day 3 after tumor injection, micrometastases were apparent histologically.
Each group was then treated with DAP, intraperitonealy, subcutaneously, or orally. A control group was treated with phosphate buffered saline (PBS). Metastic foci was determined and the percent reduction in metastic foci from the control group was determined with each group treated with DAP as follows: […]

CC(=O)NCCCCNC(C)=O [DAP, Diacetylputrescine]
Metastic foci (d1-10, i.p.): 40.8 ± 14.7 | % Reduction (d1-10, i.p.): 65.9% | Metastic foci (d1-10, p.o.): 27.2 ± 7.1 | % Reduction (d1-10, p.o.): 77.3% | Metastic foci (d1-10, s.c.): 31.0 ± 8.4 | % Reduction (d1-10, s.c.): 74.1%
